Results: patent publication US20040220239A1, “Inhibitors of serine protease activity methods and compositions for treatment of nitric oxide-induced clinical conditions” (priority 2003, published 2004)
Entries after “also recorded” stand apart in the source; their conditions may differ.

Columns and labels:
Assay type in all cases: cell-based
[1] = test system: RAW 264.7 macrophages; experiment: NO release induced by LPS and γ-IFN in macrophagic cells (nitrite, Greiss reagent); details: induction with γ-IFN and LPS, FIG. 1, FIG. 4
Procedure: RAW 264.5 macrophages are selected for measuring the effect of α1-antitrypsin on NO release. RAW 264.7 cell monolayers are pretreated for 1 hour with α1-antitrypsin (0.1-3 mg/ml), followed by costimulation by interferon-γ(10 U/ml), and LPS (1 ng/ml) for 18 hours. Aliquots (100 μl) of supernatant are combined with equal volumes of Greiss reagent and incubated at room temperature for 10 minutes. The colorimetric determination of nitrite concentration is measured by absorbance at 550 nm and quantified with a standard curve. The combination of LPS and interferon-γ is a potent stimulus for NO release in […] macrophages. The effect of α1-antitrypsin at 3 mg/ml on NO expression is measured.

[2] = test system: iNOS protein; experiment: Induction of iNOS protein by LPS and γ-interferon, Western blot; details: macrophagic cells, γ-IFN and LPS, FIG. 2
Procedure: RAW 264.7 macrophage monolayers are treated for 1 hour with α1-antitrypsin (3 mg/ml), followed by costimulation by interferon-γ (10 U/ml), and LPS (1 ng/ml) for 18 hours. The cells are lysed by exposure to lysis solution (50 mm Tris-HCl, pH 8.0, 137 mm NaCl, 10% (v/v) glycerol, 1% (v/v), Nonidet P-40, 1 mM NaF, 10 μg/ml leupeptin, […] aprotinin, 2 mM sodium vanadate, and 1 mM phenylmethylsulfonyl fluoride). Samples containing equivalent amounts of total protein are subjected to SDS-polyacrylamide gel electrophoresis. Western blots of the gels are prepared, non-specific sites blocked by incubation overnight with 5% non-fat dry milk, and iNOS detected by incubation with iNOS anti-serum (Alexis Corporation, 1:1000 in 5% (w/v) bovine serum albumin in a solution of 20 mm Tris-HCl, pH 7.6, 137 mM […], and 0.005% (v/v) Tween 20). Using horseradish peroxidase-conjugated second antibody, the antibody bound to iNOS is detected by enhanced chemiluminescence. The effect of the combination of interferon-γ, and LPS on induction of iNOS in the cell extract and the effect of pretreatment with α1-antitrypsin are measured.

[3] = test system: herpes simplex virus (HSV); experiment: Herpes simplex virus replication; details: FIG. 7
[4] = test system: p-ERK (p42/p44 MAP kinase); experiment: Western blot of p-ERK expression; details: FIG. 5
[5] = test system: NF-κB; experiment: Electrophoretic mobility shift assay of NF-κB induced by interleukin-18; details: induced by incubation with IL-18, EMSA; FIG. 3
[6] = test system: cytomegalovirus (CMV); experiment: Cytomegalovirus replication in infected RAW 264.5 macrophages; details: RAW 264.5 macrophages infected with CMV; FIG. 6

Compound | effect on NO levels (measured as NO2-) induced by γ-IFN and LPS [1] | effect on induction of iNOS protein [2] | effect on replication of HSV [3] | effect on level and/or phosphorylation of p-ERK [4] | effect on induction of active NF-κB [5] | effect on CMV replication [6]
α1-antitrypsin | efficiently block γ-IFN- and LPS-induced NO synthesis; also recorded: inhibits NO levels | inhibits induction of iNOS protein | inhibits replication of HSV | inhibits the level and/or phosphorylation of p-ERK | inhibit the induction of active NF-κB | blocks CMV replication
Cc1cccc(Cc2nnc(C(=O)C(NC(=O)[C@@H]3CCCN3C(=O)[C@@H](NC(=O)OCc3ccccc3)C(C)C)C(C)C)o2)c1 (stereo partly drawn) [CE-2072, benzyloxycarbonyl-L-valyl-N-[1-(2-[5-(3-methylbenzyl)-1,3,4-oxadiazolyl]carbonyl)-2-(S)-methylpropyl]-L-prolinamide, reference compound] | inhibits NO levels | – | – | – | inhibit the induction of active NF-κB | –
